Data on 2 molecules can be found in US20240115881A1, “METHODS AND SYSTEMS FOR DETERMINING THE DISTRIBUTION OF RADIATION DOSE AND RESPONSE” (priority 2022, published 2024).

Test [1] concerns Chinese hamster V79 lung fibroblasts. Description: clonogenic survival assay (colony formation) after single-agent treatment. Type of test: cell-based. The following applies: for surviving fraction for drug alone: 0.63 μM daunomycin or 2.50 μM doxorubicin, 2.5 h; for mean lethal concentration: extracellular concentration for 37% survival, 2.5 h exposure. The procedure: The surviving fraction SF of cells exposed to the agent was assessed with a clonogenic survival assay and plotted as a function of several different variables including extracellular concentration, <I>net, absorbed dose (Gy), and mean cellular activity (mBq/cell). The resulting survival curves were of a 1- or 2-component exponential form. Analogous to the cellular activity and absorbed dose required to achieve 37% survival, a37 and D37, the net mean lethal fluorescence intensity of the drug required to achieve 37% survival, <I>net37 , can be defined similarly and obtained from plots of SF versus <I>net.
To evaluate ^210Po cytotoxicity, the surviving fraction was plotted as a function of EuTc-citrate net MFI, mean cellular uptake of ^210Po, and mean absorbed dose to the nucleus (FIG. 4A). […] The relationships between cell survival and EuTc-citrate net MFI or cellular ^210Po activity can be described by an exponential function SF=exp(−A/A1). The relationship between cell survival and drug net MFI (or extracellular concentration) for daunomycin and doxorubicin are illustrated in FIGS. 4B and 4C, respectively. For both drugs, clonogenic survival and cellular drug uptake (as determined by net MFI) are related via two component exponential functions SF=b exp(−A/A1)+(1-b) exp(−A/A2). A is the intracellular activity of ^210Po-citrate, absorbed dose to the cell nucleus, or drug concentration. Least squares fits of the survival data to this function were performed. The variable b is a fitted parameter.
Chinese hamster V79 lung fibroblasts were used. Two different formulations of minimum essential media (MEMA and MEMB) were used, as known in the literature. All media and supplements were Gibco (Carlsbad, CA), including fetal calf serum (catalog no. 10437, lot no. 539574). For routine maintenance, cells were grown as monolayers in Falcon 25-cm^2 tissue culture flasks (BD, Franklin Lakes, NJ, catalog no. 353082) at 37° C., 5% CO2-95% air, and subcultured twice weekly. For experiments, V79 cells (passage 4-11) were transferred into Falcon 225-cm^2 flasks (BD, catalog no. 353138), and were used upon reaching 80%-90% confluence.
Cells grown in 225-cm^2 flasks were trypsinized (0.25% trypsin, Gibco, catalog no. 25200-056), and MEMB was added to obtain 2×10^6 cells/mL. Aliquots of 1 mL were placed in Falcon 17×100 mm polypropylene tubes (BD, catalog no. 352018) and placed on a rocker-roller (Thermo Fisher, Fair Lawn, NJ) for 3 hours at 37° C. with 5% CO2 and 95% air. After this conditioning period, cells were treated with drug or radiochemical. Cell cultures were exposed to radiochemical and drugs for 0.5 and 2.5 h, respectively.
^210PoCl4 in 2 mol/L HCI was obtained at 370 MBq/mL from Eckert&Ziegler Isotope Products (Valencia, CA, catalog no. 6310). ^210Po-citrate was prepared as follows. Briefly, PoCl4 solution was mixed with 1 mol/L sodium citrate in the ratio of 1:7 (final pH 5.8), and was diluted with MEMB to a volume of 4 mL (final pH 6.9). One milliliter of MEMB containing 210Po-citrate was added to the 1 mL of conditioned V79 cultures (2×10^6 cells/mL), to arrive at a concentration of 0-250 kBq/mL (pH 6.9-7.0). After incubating for 30 min, the cells were washed 2× with MEMB, resuspended in 2 mL of MEMB, and incubated on a rocker-roller for 2.5 h to simulate concomitant drug exposure. The cells were resuspended in a 5 mL of MEMB, passed 5× through a needle, and counted with a Beckman Coulter Model Z2 (Brea, CA). Aliquots (500 μL) of the cell suspension were transferred to vials, mixed with 5 mL Ecolume (MP Biomedical, Solon, OH, catalog no. 882470), and counted with a Beckman Coulter LS6500, and the mean activity per cell was determined (efficiency, 50% as per prior studies). Aliquots of about 5×10^5 cells were counted in triplicate for ^210Po activity and the cpm ranged from 10^3-10^5. The triplicate measurements kept statistical variations to a minimum. […]

Test [2] concerns V79 cells. Briefly: clonogenic survival after combined treatment with 210Po-citrate and a chemotherapy drug. It counts as cell-based, Chinese hamster. The settings on record: for effect on radiotoxicity of 210Po-citrate α-particles: 0.63 μM daunomycin or 2.50 μM doxorubicin plus graded 210Po-citrate, corrected for drug toxicity. The procedure: ^210PoCl4 in 2 mol/L HCI was obtained at 370 MBq/mL from Eckert&Ziegler Isotope Products (Valencia, CA, catalog no. 6310). ^210Po-citrate was prepared as follows. Briefly, PoCl4 solution was mixed with 1 mol/L sodium citrate in the ratio of 1:7 (final pH 5.8), and was diluted with MEMB to a volume of 4 mL (final pH 6.9). One milliliter of MEMB containing 210Po-citrate was added to the 1 mL of conditioned V79 cultures (2×10^6 cells/mL), to arrive at a concentration of 0-250 kBq/mL (pH 6.9-7.0). After incubating for 30 min, the cells were washed 2× with MEMB, resuspended in 2 mL of MEMB, and incubated on a rocker-roller for 2.5 h to simulate concomitant drug exposure. The cells were resuspended in a 5 mL of MEMB, passed 5× through a needle, and counted with a Beckman Coulter Model Z2 (Brea, CA). Aliquots (500 μL) of the cell suspension were transferred to vials, mixed with 5 mL Ecolume (MP Biomedical, Solon, OH, catalog no. 882470), and counted with a Beckman Coulter LS6500, and the mean activity per cell was determined (efficiency, 50% as per prior studies). Aliquots of about 5×10^5 cells were counted in triplicate for ^210Po activity and the cpm ranged from 10^3-10^5. The triplicate measurements kept statistical variations to a minimum. Each sample was serially diluted and plated in Falcon 60×15 mm tissue culture dishes for colony formation. Cultures were incubated for 7 days, and the colonies were fixed in 95% ethanol, stained with 0.01% Amido Black, washed in tap-water, air-dried, and counted.
After conditioning, the cell cultures were treated with daunomycin (Sigma, catalog no. D8809) or doxorubicin (Sigma, catalog no. 44583) to a final concentration of 0-10 μmol/L in MEMB. The tubes were returned to the rocker-roller for 2.5 h. The cells were then processed for colony formation as described above.
To evaluate cytotoxicity of combined treatment of V79 cells with ^210Po-citrate and daunomycin, or ^210Po-citrate and doxorubicin, the surviving fraction of clonogens was plotted as a function of mean cellular uptake of ^210Po (FIG. 9) and as a function of mean absorbed dose to the cell nucleus. When cells were only treated with ^210Po-citrate, the survival curve can be described by a 1-component exponential function. When cells were concomitantly treated with a single drug concentration and varying amounts of ^210Po-citrate, the dose-response curves followed a 2-component exponential function. The data corresponding to the combined treatments were then corrected for drug toxicity, by dividing the surviving fraction for each datum point by the surviving fraction for drug alone (SF=0.10), and replotted in FIG. 9. Both of the corrected cell survival curves emerged below those obtained for ^210Po-citrate alone.

[3] abbreviates: 0.63 μM daunomycin + 210Po-citrate.

As for `COc1cccc2c1C(=O)c1c(O)c3c(c(O)c1C2=O)C[C@@](O)(C(C)=O)C[C@@H]3O[C@H]1C[C@H](N)[C@H](O)[C@H](C)O1` [daunomycin], the “surviving fraction for drug alone” value in test [1] is on record as 0.10. Also, the mean lethal concentration in test [1] (V79 cells) stood at 0.24 µmol/L. Moreover, the “lethality relative to doxorubicin” value in test [1] (low extracellular concentrations, V79 cells) is about 5 ×. Also, in test [2] (setting [3]), the “absorbed dose beyond which the enhancement was independent of dose” value is reported as “about 0.5 Gy” and the “cellular activity beyond which the enhancement was independent of dose” value is about 0.09 mBq/cell. The “effect on radiotoxicity of 210Po-citrate α-particles” value in test [2] is recorded as “enhance the radiotoxicity of α-particles”.
As for `COc1cccc2c1C(=O)c1c(O)c3c(c(O)c1C2=O)C[C@@](O)(C(=O)CO)C[C@@H]3O[C@H]1C[C@H](N)[C@H](O)[C@H](C)O1` [doxorubicin], the “surviving fraction for drug alone” value in test [1] is on record as 0.10. In test [1] (V79 cells), this molecule had a mean lethal concentration of 1.26 µmol/L. The “effect on radiotoxicity of 210Po-citrate α-particles” value in test [2] is given as “enhance the radiotoxicity of α-particles”. For the same molecule, the “dose dependence of the increased kill” value in test [2] (2.50 μM doxorubicin + 210Po-citrate) is “dose-dependent increase”.
